Reference: EP4696688A1, “BENZO-FUSED RING COMPOUND INHIBITOR, AND PREPARATION METHOD THEREFOR AND USE THEREOF” (Shanghai Hansoh Biomedical Co., Ltd., priority 2023, dated 2024)

Experiments:
[1] = target: T1, human CYP11B2 (Homo sapiens, UniProt P19099); assay: G-402 cell enzyme experiment, CYP11B2 (aldosterone product, HTRF); format: cell-based; settings: G-402 cells stably expressing human CYP11B2, 1 µM 11-deoxycorticosterone, 16 h
T1 construct: The main elements of an expression plasmid include ORF of human CYP11B1 or human CYP11B2; expressed in transfected cells
T1 sequence (P19099 25-503): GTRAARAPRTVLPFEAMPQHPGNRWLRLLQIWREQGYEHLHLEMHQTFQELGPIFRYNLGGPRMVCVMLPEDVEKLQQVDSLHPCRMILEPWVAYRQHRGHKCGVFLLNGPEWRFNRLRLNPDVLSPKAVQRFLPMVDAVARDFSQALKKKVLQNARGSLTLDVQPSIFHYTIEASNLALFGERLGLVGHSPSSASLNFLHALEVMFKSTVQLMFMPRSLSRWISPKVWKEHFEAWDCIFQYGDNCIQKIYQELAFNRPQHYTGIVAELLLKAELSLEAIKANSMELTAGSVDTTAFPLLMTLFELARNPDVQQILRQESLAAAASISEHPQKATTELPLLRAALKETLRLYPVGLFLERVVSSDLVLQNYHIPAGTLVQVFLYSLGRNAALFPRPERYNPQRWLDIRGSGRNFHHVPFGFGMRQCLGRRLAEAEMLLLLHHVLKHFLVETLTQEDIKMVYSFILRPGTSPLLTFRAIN
Excerpt: (§1) G-402 cell line was used as host cells to express (by transient or stable transfection) an enzyme of the human CYP11 family. Specifically, G-402 cell lines stably expressing human CYP11B1 and human CYP11B2 were established respectively. […] Therefore, the G-402 cell line is very suitable as a host cell for the ectopic expression of an enzyme of the CYP11 family.
(§2) The G-402 cell line, originally derived from renal myoblastoma, can be obtained from ATCC (CRL-1440). The main elements of an expression plasmid include ORF of human CYP11B1 or human CYP11B2, a suitable promoter (CMV promoter), and a suitable resistance marker (neomycin). The expression plasmid was transfected into G-402 cells by standard technology, and a specific antibiotic was then given for screening. The activity of the enzyme expressed by the screened monoclonal cells was assessed by 11-deoxycorticosterone (substrate of CYP11B2) and 11-deoxycortisol (substrate of CYP11B1).
(§3) The G-402 cells expressing CYP11 plasmid, as established in the above solution, were cultured in McCoy's 5a Modified Medium (ATCC Catalog No. 30-2007) containing 10% FCS and 400 µg/ml G418 in an incubator at 37°C and 5% CO2. A cell enzyme experiment was carried out using DMEM/F12 medium containing 2.5% charcoal-treated FBS and an appropriate concentration of a substrate (1 µM 11-deoxycorticosterone or 1 µM 11-deoxycortisol). In order to detect the activity of the enzyme in the cells, the cells were plated in a 96-well plate and incubated for 16 h. The supernatant was then transferred and analyzed for the concentration of the expected product (the product of CYP11B2: aldosterone; the product of CYP11B1: cortisol). The concentrations of these products were determined by an HTRF experiment of CisBio.
(§4) In the cell enzyme experiment, the inhibitory effect of the test compound on the generated product can reflect the inhibitory effect thereof on the enzyme. The dose-dependent inhibition of the enzyme activity by the compound was calculated by plotting the concentration of the test compound (x axis) versus the measured product level (y axis). Then, the original data was fitted to a 4-parameter sigmoidal function (Morgan-Mercer-Flodin, MMF model) by least square method: y = (AB + Cx^D) / (B + x^D) in which A is the maximum y value, B is the EC50 determined by XLFit, C is the minimum y value, and D is the slope value. The maximum value A corresponds to the amount of the product detected without an inhibitor, and C corresponds to the amount of the product detected in the G402 cells expressing an empty plasmid.
(§5) The EC50 value of the compound of the present invention was determined by the above G-402 experiment system. The activity of the CYP11B2 enzyme was determined under the conditions of 1 µM 11-deoxycorticosterone and a variable amount of the inhibitor, and the activity of the CYP11B1 enzyme was determined under the conditions of 1 µM 11-deoxycortisol and a variable amount of the inhibitor.

[2] = target: T2, human CYP11B1 (Homo sapiens, UniProt P15538); assay: G-402 cell enzyme experiment, CYP11B1 (cortisol product, HTRF), selectivity versus CYP11B2; format: cell-based; settings: human selective factor: ratio of CYP11B1 EC50 to CYP11B2 EC50; G-402 cells
T2 construct: The main elements of an expression plasmid include ORF of human CYP11B1 or human CYP11B2; expressed in transfected cells
T2 sequence (P15538 25-503): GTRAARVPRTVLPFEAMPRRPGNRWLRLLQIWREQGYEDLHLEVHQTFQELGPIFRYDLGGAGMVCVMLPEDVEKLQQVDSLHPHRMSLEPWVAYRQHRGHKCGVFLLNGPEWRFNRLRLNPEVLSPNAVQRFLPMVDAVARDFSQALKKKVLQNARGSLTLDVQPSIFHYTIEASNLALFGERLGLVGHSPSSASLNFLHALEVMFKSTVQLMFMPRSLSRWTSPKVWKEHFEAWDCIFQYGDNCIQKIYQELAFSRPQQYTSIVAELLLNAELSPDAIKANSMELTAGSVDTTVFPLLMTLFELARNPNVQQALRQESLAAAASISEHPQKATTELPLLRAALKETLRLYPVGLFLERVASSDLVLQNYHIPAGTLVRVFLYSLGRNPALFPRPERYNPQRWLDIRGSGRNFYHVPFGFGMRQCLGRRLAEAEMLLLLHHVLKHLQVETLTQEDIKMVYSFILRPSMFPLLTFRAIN
Excerpt: as §1, §2, §3, §4, §5

[3] = Pharmacokinetic determination in rats; format: in vivo; settings: rat, male SD rats, plasma, oral administration (PO) 5 mg/kg; for MRT inf: read-out: MRT0-∞
Method: SD rats were used as test animals to study the pharmacokinetic behavior of the compounds of the present invention in rats (plasma) after oral administration.
3 SD rats per group, male.
Formulation of drug for oral administration: 0.5% CMC-Na (1% Tween 80)
5 g of sodium carboxymethyl cellulose (CMC-Na, viscosity: 800-1200 Cps) was weighed and dissolved in 1000 mL of purified water, and 10 g of Tween 80 was added. These materials were uniformly mixed to form a clear solution.
The example compounds were weighed and dissolved in the solution and the mixture was shaken well and ultrasonicated for 15 min to obtain a colorless clear solution with a concentration of 0.5 mg/mL. Formulation of drug for intravenous administration: 5% DMSO + 10% Solutol HS15 + 85% PBS
After overnight fasting, 3 male SD rats per group were administered orally (PO) at a dose of 5 mg/kg with an administration volume of 10 mL/kg. […]
0.2 mL of blood was collected from the jugular vein of the experimental animals before administration and at 0.25 h, 0.5 h, 1.0 h, 2.0 h, 4.0 h, 6.0 h, 8.0 h, and 24.0 h after administration and placed in an EDTA-2K test tube, and the test tube was centrifuged at 8000 rpm for 6 min at 4°C to separate the plasma, which was stored at -80°C; and the animals were fed 4 h after administration.
3 Experimental results: The final determination results were obtained by using LCMS/MS method.

EC50 [1]	hsF [2]	AUC(0-inf) [3]	AUC(0-t) [3]	Cmax [3]	Tmax [3]	half-life [3]	MRT inf [3]	SMILES
24 nM	> 8488x	21600 ng·h/mL	21600 ng·h/mL	3210 ng/mL	4 h	1.9 h	4.7 h	[2H]C([2H])([2H])n1cc(C(=O)N2CC3(C2)CN(c2cncc(-c4ccc5nc(OC)ccc5c4)c2)C3)cn1 [Example 78, (6-(5-(2-methoxyquinolin-6-yl)pyridin-3-yl)-2,6-diazaspiro[3.3]heptan-2-yl)(1-(methyl-d3)-1H-pyrazol-4-yl)methanone]
26 nM	1292x	24700 ng·h/mL	24700 ng·h/mL	2700 ng/mL	4 h	1.8 h	5.6 h	Cn1cc(C(=O)N2CCC3(CC2)CN(c2cncc(-c4ccc5c(c4)sc(=O)n5C)c2)C3)cn1 [Example 103, 3-methyl-6-(5-(7-(1-methyl-1H-pyrazole-4-carbonyl)-2,7-diazaspiro[3.5]nonan-2-yl)pyridin-3-yl)benzo[d]thiazol-2(3H)-one]
69 nM	170x	22400 ng·h/mL	21800 ng·h/mL	4900 ng/mL	2 h	1.3 h	3.1 h	CCC(=O)N[C@@H]1CCCc2c(-c3ccc4c(cnn4C)c3)cncc21 [Example 60, (R)-N-(4-(1-methyl-1H-indazol-5-yl)-5,6,7,8-tetrahydroisoquinolin-8-yl)propanamide]
9 nM	> 22909x	33600 ng·h/mL	33600 ng·h/mL	5720 ng/mL	2 h	2.2 h	3.8 h	COc1ccc2cc(-c3cncc(N4CC5(CN(C(=O)c6cnn(C)c6)C5)C4)c3)ccc2n1 [Example 23, (6-(5-(2-methoxyquinolin-6-yl)pyridin-3-yl)-2,6-diazaspiro[3.3]heptan-2-yl)(1-methyl-1H-pyrazol-4-yl)methanone]
9 nM	1048x	22500 ng·h/mL	20100 ng·h/mL	3950 ng/mL	2 h	2 h	4.1 h	COc1ccc2cc(-c3cncc(N4CC5(CN(C(=O)c6ccc(C)nc6)C5)C4)n3)ccc2n1 [Example 100, (6-(6-(2-methoxyquinolin-6-yl)pyrazin-2-yl)-2,6-diazaspiro[3.3]heptan-2-yl)(6-methylpyridin-3-yl)methanone]
14 nM	174x	–	–	–	–	–	–	COc1ccc2cc(-c3cncc(N4CC5(CCN(C(=O)c6cnn(C)c6)CC5)C4)c3)ccc2n1 [Example 62, (2-(5-(2-methoxyquinolin-6-yl)pyridin-3-yl)-2,7-diazaspiro[3.5]nonan-7-yl)(1-methyl-1H-pyrazol-4-yl)methanone]
13 nM	2541x	–	–	–	–	–	–	COc1ccc2cc(-c3cncc(NC4CN(C(=O)c5cnn(C)c5)C4)c3)ccc2n1 [Example 40, (3-((5-(2-methoxyquinolin-6-yl)pyridin-3-yl)amino)azetidin-1-yl)(1-methyl-1H-pyrazol-4-yl)methanone]
104 nM	> 1923x	–	–	–	–	–	–	Cn1cc(C(=O)N2CC3(C2)CN(c2cncc(-c4ccc5c(c4)sc(=O)n5C)n2)C3)cn1 [Example 107, 3-methyl-6-(6-(6-(1-methyl-1H-pyrazole-4-carbonyl)-2,6-diazaspiro[3.3]heptan-2-yl)pyrazin-2-yl)benzo[d]thiazol-2(3H)-one]
18 nM	842x	–	–	–	–	–	–	COc1ccc2cc(-c3cncc(N4CC5(CN(C(=O)C6CC6)C5)C4)c3)ccc2n1 [Example 82, cyclopropyl (6-(5-(2-methoxyquinolin-6-yl)pyridin-3-yl)-2,6-diazaspiro[3.3]heptan-2-yl)methanone]
55 nM	252x	–	–	–	–	–	–	Cn1c(=O)ccc2cc(-c3cncc(C4=CCN(S(=O)(=O)C5CC5)CC4)c3)ccc21 [Example 70, 6-(1'-(cyclopropylsulfonyl)-1',2',3',6'-tetrahydro-[3,4'-bipyridin]-5-yl)-1-methylquinolin-2(1H)-one]
48 nM	229x	–	–	–	–	–	–	COc1ccc2cc(-c3cncc(N4CC5(CN(C(C)=O)C5)C4)n3)ccc2n1 [Example 93, 1-(6-(6-(2-methoxyquinolin-6-yl)pyrazin-2-yl)-2,6-diazaspiro[3.3]heptan-2-yl)ethan-1-one]
6 nM	159x	–	–	–	–	–	–	COc1ccc2cc(-c3cncc(N4CCC(NC(=O)c5cnn(C)c5)CC4)n3)ccc2n1 [Example 109, N-(1-(6-(2-methoxyquinolin-6-yl)pyrazin-2-yl)piperidin-4-yl)-1-methyl-1H-pyrazole-4-carboxamide]
8 nM	1652x	–	–	–	–	–	–	COc1ccc2cc(-c3cncc(N4CC5(CN(C(=O)c6ccc(C)nc6)C5)C4)c3)ccc2n1 [Example 84, (6-(5-(2-methoxyquinolin-6-yl)pyridin-3-yl)-2,6-diazaspiro[3.3]heptan-2-yl)(6-methylpyridin-3-yl)methanone]
11 nM	1285x	–	–	–	–	–	–	COc1ccc2cc(-c3cncc(N4CC5(CN(C(C)=O)C5)C4)c3)ccc2n1 [Example 92, 1-(6-(5-(2-methoxyquinolin-6-yl)pyridin-3-yl)-2,6-diazaspiro[3.3]heptan-2-yl)ethan-1-one]
